The values that follow come from patent US11472774B2, “Anti-cancer compounds” (The University of Sydney, priority 2018, dated 2022).

Molecules are shown by their SMILES.

In the assay the target is T1, porcine brain tubulin (Sus scrofa, UniProt P02550+P02554).
T1 construct: purchased Cytoskeleton; host or cells: porcine brain tissue
T1 sequence (P02550 whole entry): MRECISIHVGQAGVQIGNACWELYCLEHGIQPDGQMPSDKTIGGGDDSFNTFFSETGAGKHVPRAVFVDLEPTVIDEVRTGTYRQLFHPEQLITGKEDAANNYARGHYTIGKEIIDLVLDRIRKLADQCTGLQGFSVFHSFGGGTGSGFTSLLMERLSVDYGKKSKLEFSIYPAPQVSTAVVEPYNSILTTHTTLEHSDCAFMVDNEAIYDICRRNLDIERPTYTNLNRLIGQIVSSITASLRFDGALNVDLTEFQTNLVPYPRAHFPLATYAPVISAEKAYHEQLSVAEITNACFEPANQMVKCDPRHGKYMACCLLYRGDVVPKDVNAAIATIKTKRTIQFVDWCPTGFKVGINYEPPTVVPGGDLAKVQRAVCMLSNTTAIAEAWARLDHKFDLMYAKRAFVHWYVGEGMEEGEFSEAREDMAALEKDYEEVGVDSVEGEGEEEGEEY
T1 sequence (P02554 whole entry): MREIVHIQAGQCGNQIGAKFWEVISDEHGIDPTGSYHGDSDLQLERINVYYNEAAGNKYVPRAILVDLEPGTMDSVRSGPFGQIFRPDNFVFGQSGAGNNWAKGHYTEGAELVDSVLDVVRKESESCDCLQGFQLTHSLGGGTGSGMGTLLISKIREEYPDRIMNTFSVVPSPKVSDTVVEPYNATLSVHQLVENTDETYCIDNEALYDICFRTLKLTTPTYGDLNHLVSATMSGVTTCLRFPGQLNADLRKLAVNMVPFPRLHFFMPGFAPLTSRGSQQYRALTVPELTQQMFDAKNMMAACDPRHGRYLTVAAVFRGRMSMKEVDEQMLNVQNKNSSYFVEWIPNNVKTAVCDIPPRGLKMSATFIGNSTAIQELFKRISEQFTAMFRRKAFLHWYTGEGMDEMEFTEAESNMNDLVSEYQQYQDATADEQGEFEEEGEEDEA
Kind of assay: Fluorescence-based tubulin polymerization assay. The format is biochemical. The note with it: compared to control (DMSO); 37° C.; FIG. 1 and FIG. 2. The protocol:
Fluorescence-based tubulin polymerization assay was conducted in a final volume of 55 μL using the Tubulin Polymerization Assay kit (Cytoskeleton, Colo., USA) as per manufacturer's instructions. Briefly, porcine brain tubulin was incubated with test compounds at 37° C. and fluorescence was measured using with Tecan M200 PRO+ microplate reader (Tecan, Switzerland) at 355 nm excitation and 460 nm emission.
As for `O=C(CCCc1ccc(-c2ccccc2F)cc1)Nc1cccnc1` [WJA69b, 4-(2′-fluoro-[1,1′-biphenyl]-4-yl)-N-(pyridin-3-yl)butanamide], the “effect on tubulin polymerization” value was “inhibited tubulin polymerization”.

For the compound `O=C(NCCCc1ccc(-c2ccccc2F)cc1)c1cccnc1` [WJA88, N-(3-(2′-Fluoro-[1,1′-Biphenyl]-4-yl)Propyl)Nicotinamide], the “effect on tubulin polymerization” value is “inhibited tubulin polymerization”.

Consider `CC(=O)O[C@H]1C(=O)[C@@]2(C)[C@H]([C@H](OC(=O)c3ccccc3)[C@]3(O)C[C@H](OC(=O)[C@H](O)[C@@H](NC(=O)c4ccccc4)c4ccccc4)C(C)=C1C3(C)C)[C@]1(OC(C)=O)CO[C@@H]1C[C@@H]2O` [paclitaxel], for which the “effect on tubulin polymerization” value is “enhanced tubulin polymerization”.

As for `CC[C@]1(O)C[C@@H]2CN(CCc3c([nH]c4ccccc34)[C@@](C(=O)OC)(c3cc4c(cc3OC)N(C)[C@H]3[C@@](O)(C(=O)OC)[C@H](OC(C)=O)[C@]5(CC)C=CCN6CC[C@]43[C@@H]65)C2)C1` [vinblastine], the “effect on tubulin polymerization” value is reported as “inhibited tubulin polymerization”.
